{
  "source": "patent US20110218515A1",
  "about": "“Methods for Treating Acute Myocardial Infarctions and Associated Disorders” (The Regents of the University of California, priority 2009, published 2011)",
  "key": {"[1]": {"test_system": "congestive heart failure dogs, coronary perfused left ventricular preparation", "assay": "Ventricular fibrillation optical mapping, activation patterns, pacing-induced heart failure dogs", "assay_type": "in vivo", "source_text": "(§1) Animal Models: Twenty-four dogs weighing 25-30 Kg were divided into three groups: control (n=11), congestive heart failure (n=7), and congestive heart failure with the antifibrotic drug pirfenidone (n=6). Heart Failure (CHF) was induced in 7 dogs via four weeks of rapid ventricular pacing via a lead placed in the RV and pulse generator set to pace at 240 bpm followed by ablation of the AV node to create complete heart block, as described in Li, et al., Circulation 1999; 100:87-95. Ventricular function was monitored weekly with transthoracic echocardiography for 4 weeks. At 4 weeks, the optical mapping study was performed.\n(§2) Heart Failure with Pirfenidone (PFD): Heart failure was induced in 6 dogs as described above and PFD was administered as described in Lee et al., Circulation 2006; 114; 1703-12. Oral PFD (800 mg 3 times per day; InterMune, Brisbane, Calif.) was started 2 days before the initiation of pacing and was discontinued >6 half-lives (24 hours) before the optical mapping study.\nOptical Mapping Studies: A coronary perfused left ventricular preparation was used as described in Wu et al., J Cardiovasc Electrophysiol 1998; 9:1336-47. Briefly, following sedation with sodium pentothal (0.25 mg/Kg), a left lateral thoracotomy is performed and the heart was rapidly excised. It was then perfused with cardioplegic solution ((in mmol/L): NaCl 123, KCl 15, NaHCO3 22, NaH2PO4 0.65, MgCl2 0.50, glucose 5.5, CaCl2 2, bubbled with 95% O2/5% CO2) retrogradely through the aorta. The ventricles were removed at approximately 1 cm below the AV ring and the left anterior descending coronary artery (LAD) was perfused. The right ventricle was removed and the left ventricle was cut to the size that was perfused by the LAD and included a papillary muscle. All ventricular branches were then ligated.\nThe ventricular preparation was then transferred to a tissue chamber maintained at 37° C. The perfusion line in the LAD was perfused with modified Tyrode's solution ((in mmol/L): NaCl 123, KCl 5.4, NaHCO3 22, NaH2PO4 0.65, MgCl2 0.50, glucose 5.5, CaCl2 2, bubbled with 95% O2/5% CO2). Prior to optical recordings, a bolus of 30-40 μl of the voltage sensitive dye PGH-1 was injected directly into the perfusate.\nWith an optical mapping system described in Wu et al., J Cardiovasc Electrophysiol 1998; 9:1336-47, optical recordings were then made from 4-cm^2 area on 3 surfaces of the preparation (epicardial, endocardial (including the papillary muscle, and transmural) by a 16×16 photodiode array (C4657 Hamamatsu, Bridgewater, N.J.) that recorded 256 simultaneous optical action potentials. During optical recordings from a preparation, contractility was blocked with 15 mM 2,3-butadione monoxime (BDM; Sigma-Aldrich)11. Plunge electrodes were placed on the recording surface around the field of view for both pacing and monitoring. Two plunge electrodes were dedicated for recording a bipolar signal for monitoring the electrical activity of the preparation. VF was initiated with either extra stimuli or with rapid burst pacing at a cycle length of 50 ms, a pulse width of 9.9 ms, and an output of 9.9 mA. Several 4-s episodes of VF were recorded on each surface in each preparation. Activation movies of the VF were then viewed, and the activation patterns were determined. […] Activation patterns and wave-front direction during VF were determined from raw fluorescence movies (isopotential). […]"}, "[2]": {"test_system": "congestive heart failure dogs, coronary perfused left ventricular preparation", "assay": "VF frequency domain analysis (dominant frequency), pacing-induced heart failure dogs", "assay_type": "in vivo", "settings": "CHF dogs with PFD", "source_text": "as §1, §2\nWith an optical mapping system described in Wu et al., J Cardiovasc Electrophysiol 1998; 9:1336-47, optical recordings were then made from 4-cm^2 area on 3 surfaces of the preparation (epicardial, endocardial (including the papillary muscle, and transmural) by a 16×16 photodiode array (C4657 Hamamatsu, Bridgewater, N.J.) that recorded 256 simultaneous optical action potentials. During optical recordings from a preparation, contractility was blocked with 15 mM 2,3-butadione monoxime (BDM; Sigma-Aldrich)11. Plunge electrodes were placed on the recording surface around the field of view for both pacing and monitoring. Two plunge electrodes were dedicated for recording a bipolar signal for monitoring the electrical activity of the preparation. VF was initiated with either extra stimuli or with rapid burst pacing at a cycle length of 50 ms, a pulse width of 9.9 ms, and an output of 9.9 mA. Several 4-s episodes of VF were recorded on each surface in each preparation. Activation movies of the VF were then viewed, and the activation patterns were determined. After termination of VF, signals were obtained during pacing at 250 ms and isochronal maps of activation were constructed to look at conduction. Activation patterns and wave-front direction during VF were determined from raw fluorescence movies (isopotential). […] VF was defined as rapid and irregular activations on the bipolar signal used for monitoring the electrical activity of the preparation.\nSignal Processing and Frequency Domain Analysis: The signals obtained from the optical mapping recordings were sampled at 2,000 Hz, and for each signal the dominant frequency (DF) was determined and the organization was calculated as described Everett, et al., IEEE Trans Biomed Eng 2001; 48:969-78. Briefly, a fast Fourier transform (FFT) was calculated on the digitally filtered waveform. The data were detrended and multiplied by a Hamming window. The largest peak of the resulting magnitude spectrum was identified, and the positions of the harmonic peaks were determined on the basis of its position. The areas under the largest peak and three of its harmonic peaks were each calculated over a 1-Hz window. This produced an area under four peaks. The total area of the spectrum was calculated from 2 Hz up to but not including the fifth harmonic peak. The ratio of the power under the harmonic peaks to the total power in this range was calculated, and the resulting number was defined as the organization index (OI). The OI was theorized to represent the organization of AF for that signal at that period in time. To calculate the variance of the DFs, spatial coefficient of variance (SD/mean) of the DFs during a single episode of AF among all recording sites and temporal coefficient of variance of average DFs from among AF episodes for each mapping field within each preparation were calculated. Discrete, stable, high frequency areas were noted. […]"}, "[3]": {"settings": "CHF dogs, oral PFD 800 mg 3 times per day, one line per dog, listed as PFD"}},
  "note": "“Also recorded” adds a separate entry of the source.",
  "data": [
    {"smiles": "Cc1ccc(=O)n(-c2ccccc2)c1", "note": "[pirfenidone]", "values": [
      {"measurement": "mapped epicardial surfaces having either focal activation or a spiral wave", "setting": "[1]; CHF dogs with PFD", "result": "2/6"},
      {"measurement": "mapped transmural surfaces with spiral wave activation pattern correlated to stable high DF areas", "setting": "[1]; CHF dogs with PFD", "result": 50, "unit": "%"},
      {"measurement": "VF Activation Patterns, Endocardial", "setting": "[1]; [3]", "result": "either multiple or broad wavefront activation; also recorded: multiple wave; also recorded: broad wavefront"},
      {"measurement": "VF Activation Patterns, Epicardial", "setting": "[1]; [3]", "result": "multiple wave; also recorded: focal"},
      {"measurement": "VF Activation Patterns, Transmural", "setting": "[1]; [3]", "result": "spiral wave; also recorded: multiple wave"},
      {"measurement": "dogs with at least one surface with VF characterized by high DF areas", "setting": "[2]; CHF 6 of 7, Controls 3 of 11", "result": "3 of 6"},
      {"measurement": "gradient of frequencies over distance, transmural surface", "setting": "[2]; untreated heart failure animals have a very large gradient", "result": "preserved the transmural gradient to that similar to control animals"},
      {"measurement": "DF Spatial CoV", "setting": "[2]; Endocardium", "result": "0.11 ± 0.04"},
      {"measurement": "DF Temporal CoV", "setting": "[2]; Endocardium", "result": "0.07 ± 0.03"},
      {"measurement": "Max DF", "setting": "[2]; Endocardium", "result": "10.44 ± 1.32", "unit": "Hz"},
      {"measurement": "Mean DF", "setting": "[2]; Endocardium", "result": "8.29 ± 0.68", "unit": "Hz"},
      {"measurement": "DF Spatial CoV", "setting": "[2]; Epicardium", "result": "0.09 ± 0.04"},
      {"measurement": "DF Temporal CoV", "setting": "[2]; Epicardium", "result": "0.05 ± 0.01"},
      {"measurement": "Max DF", "setting": "[2]; Epicardium", "result": "10.92 ± 0.98", "unit": "Hz"},
      {"measurement": "Mean DF", "setting": "[2]; Epicardium", "result": "9.17 ± 1.08", "unit": "Hz"},
      {"measurement": "DF Spatial CoV", "setting": "[2]; Transmural", "result": "0.14 ± 0.06"},
      {"measurement": "DF Temporal CoV", "setting": "[2]; Transmural", "result": "0.08 ± 0.02"},
      {"measurement": "Max DF", "setting": "[2]; Transmural", "result": "10.24 ± 1.89", "unit": "Hz"},
      {"measurement": "Mean DF", "setting": "[2]; Transmural", "result": "7.93 ± 1.52", "unit": "Hz"}
    ]}
  ]
}
